US20240299385A1 (ReWind Therapeutics NV, priority 2021, published 2024)

Target: T1, human GPR17 receptor (Homo sapiens, UniProt Q13304)
T1 construct: host or cells: HEK-293
Test: Calcium mobilization functional assay (Fluo-8, FLIPR TETRA) in HEK-293 hGPR17 (Gα-q assay)
Type: cell-based
Details: antagonism of MDL29,951 (~EC80) induced Ca2+ signal; cell line (HEK-293 hGPR17 or HEK-293 Suchi5 hGPR17) not given
How it was run: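 Fluo-8-loaded HEK-293 hGPR17 cells (60 min dye loading, room temperature) were preincubated with compound for twenty minutes, then challenged with agonist MDL29,951 at ~EC80, 500 nM. Intracellular calcium release via Gα-q was recorded as FLIPR fluorescence for a further 2 minutes; compounds tested in duplicate.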

T1 sequence (Q13304 whole entry): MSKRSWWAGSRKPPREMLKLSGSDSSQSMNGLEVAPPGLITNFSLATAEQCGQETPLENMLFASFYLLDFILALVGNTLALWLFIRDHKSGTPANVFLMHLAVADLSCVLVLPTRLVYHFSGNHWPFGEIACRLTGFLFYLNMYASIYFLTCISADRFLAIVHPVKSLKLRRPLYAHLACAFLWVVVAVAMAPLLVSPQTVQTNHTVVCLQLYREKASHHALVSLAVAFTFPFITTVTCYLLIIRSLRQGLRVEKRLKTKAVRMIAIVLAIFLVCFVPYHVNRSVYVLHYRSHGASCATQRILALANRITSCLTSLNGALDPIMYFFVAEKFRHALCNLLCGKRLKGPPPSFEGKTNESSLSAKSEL

SMILES	IC50
N#Cc1cc(F)c(NS(=O)(=O)c2c[nH]cc2Cc2cccc(Cl)c2)cc1F [Cpd 569, 4-[(3-chlorophenyl)methyl]-N-(4-cyano-2,5-difluorophenyl)-1H-pyrrole-3-sulfonamide]	< 500 nM
N#Cc1ccc(NS(=O)(=O)c2c[nH]c(-c3ccc(F)s3)c2)c(F)c1 [Cpd 570, N-(4-cyano-2-fluorophenyl)-5-(5-fluorothiophen-2-yl)-1H-pyrrole-3-sulfonamide]	< 500 nM
CC1(C)CC(c2cc(S(=O)(=O)Nc3cc(F)c(C(F)(F)F)cc3F)c[nH]2)C1 [Cpd 571, N-[2,5-difluoro-4-(trifluoromethyl)phenyl]-5-(3,3-dimethylcyclobutyl)-1H-pyrrole-3-sulfonamide]	5000 to 50000 nM
N#Cc1cc(F)c(NS(=O)(=O)c2c[nH]c(-c3cccc4ccsc34)c2)cc1F [Cpd 572, 5-(1-benzothiophen-7-yl)-N-(4-cyano-2,5-difluorophenyl)-1H-pyrrole-3-sulfonamide]	< 500 nM
O=S(=O)(Nc1cc(F)c(C(F)(F)F)cc1F)c1c[nH]c(-c2ncccc2CF)c1 [Cpd 573, N-[2,5-difluoro-4-(trifluoromethyl)phenyl]-5-[3-(fluoromethyl)pyridin-2-yl]-1H-pyrrole-3-sulfonamide]	500 to 5000 nM
N#Cc1cccc(Cc2c[nH]cc2S(=O)(=O)Nc2cc(F)c(C(F)(F)F)cc2F)c1 [Cpd 574, 4-[(3-cyanophenyl)methyl]-N-[2,5-difluoro-4-(trifluoromethyl)phenyl]-1H-pyrrole-3-sulfonamide]	500 to 5000 nM
N#Cc1cc(F)c(NS(=O)(=O)c2c[nH]c(-c3cccc(Cl)n3)c2)cc1F [Cpd 575, 5-(6-chloropyridin-2-yl)-N-(4-cyano-2,5-difluorophenyl)-1H-pyrrole-3-sulfonamide]	< 500 nM
N#CCOc1cc(F)c(NS(=O)(=O)c2c[nH]c(-c3ccccc3)c2)cc1Cl [Cpd 576, N-[5-chloro-4-(cyanomethoxy)-2-fluorophenyl]-5-phenyl-1H-pyrrole-3-sulfonamide]	500 to 5000 nM
Cc1cc(F)cnc1-c1cc(S(=O)(=O)Nc2ccc(C#N)cc2F)c[nH]1 [Cpd 577, N-(4-cyano-2-fluorophenyl)-5-(5-fluoro-3-methylpyridin-2-yl)-1H-pyrrole-3-sulfonamide]	< 500 nM
N#CCOc1cc(F)c(NS(=O)(=O)c2c[nH]c(C3CCC3)c2)cc1F [Cpd 578, N-[4-(cyanomethoxy)-2,5-difluorophenyl]-5-cyclobutyl-1H-pyrrole-3-sulfonamide]	< 500 nM
O=S(=O)(Nc1cc(F)c(C(F)(F)F)cc1F)c1c[nH]c(-c2ncccc2C(F)F)c1 [Cpd 580, 5-[3-(difluoromethyl)pyridin-2-yl]-N-[2,5-difluoro-4-(trifluoromethyl)phenyl]-1H-pyrrole-3-sulfonamide]	500 to 5000 nM
N#Cc1ccc(NS(=O)(=O)c2c[nH]c(-c3ncccc3C(F)F)c2)c(F)c1 [Cpd 581, N-(4-cyano-2-fluorophenyl)-5-[3-(difluoromethyl)pyridin-2-yl]-1H-pyrrole-3-sulfonamide]	5000 to 50000 nM
Cc1noc(C)c1-c1cc(S(=O)(=O)Nc2cc(F)c(C(F)(F)F)cc2F)c[nH]1 [Cpd 582, N-[2,5-difluoro-4-(trifluoromethyl)phenyl]-5-(3,5-dimethyl-1,2-oxazol-4-yl)-1H-pyrrole-3-sulfonamide]	500 to 5000 nM
N#Cc1cc(F)c(NS(=O)(=O)c2c[nH]cc2Cc2ccc(F)cc2)cc1F [Cpd 584, N-(4-cyano-2,5-difluorophenyl)-4-[(4-fluorophenyl)methyl]-1H-pyrrole-3-sulfonamide]	< 500 nM
N#Cc1cc(F)c(NS(=O)(=O)c2c[nH]cc2Cc2cccc(F)c2)cc1F [Cpd 585, N-(4-cyano-2,5-difluorophenyl)-4-[(3-fluorophenyl)methyl]-1H-pyrrole-3-sulfonamide]	< 500 nM
N#Cc1cc(F)c(NS(=O)(=O)c2c[nH]cc2Cc2cccc(C3CC3)c2)cc1F [Cpd 586, N-(4-cyano-2,5-difluorophenyl)-4-[(3-cyclopropylphenyl)methyl]-1H-pyrrole-3-sulfonamide]	500 to 5000 nM
N#Cc1ccc(NS(=O)(=O)c2c[nH]c(-c3ccccc3OC(F)(F)F)c2)c(F)c1 [Cpd 587, N-(4-cyano-2-fluorophenyl)-5-[2-(trifluoromethoxy)phenyl]-1H-pyrrole-3-sulfonamide]	500 to 5000 nM
N#Cc1cc(F)c(NS(=O)(=O)c2c[nH]c(-c3ccccc3OC(F)(F)F)c2)cc1F [Cpd 588, N-(4-cyano-2,5-difluorophenyl)-5-[2-(trifluoromethoxy)phenyl]-1H-pyrrole-3-sulfonamide]	< 500 nM
O=S(=O)(Nc1cc(F)c(C(F)(F)F)cc1F)c1c[nH]c(-c2ccccc2OC(F)(F)F)c1 [Cpd 589, N-[2,5-difluoro-4-(trifluoromethyl)phenyl]-5-[2-(trifluoromethoxy)phenyl]-1H-pyrrole-3-sulfonamide]	500 to 5000 nM
O=S(=O)(Nc1cc(F)c(C(F)(F)F)cc1F)c1c[nH]cc1Cc1cccc(C2CC2)c1 [Cpd 590, 4-[(3-cyclopropylphenyl)methyl]-N-[2,5-difluoro-4-(trifluoromethyl)phenyl]-1H-pyrrole-3-sulfonamide]	5000 to 50000 nM
O=S(=O)(Nc1cnsc1)c1c[nH]c(-c2ccccc2)c1 [Cpd 591, 5-phenyl-N-(1,2-thiazol-4-yl)-1H-pyrrole-3-sulfonamide]	5000 to 50000 nM
N#Cc1ccc(NS(=O)(=O)c2c[nH]c(-c3ncccc3CF)c2)c(F)c1 [Cpd 592, N-(4-cyano-2-fluorophenyl)-5-[3-(fluoromethyl)pyridin-2-yl]-1H-pyrrole-3-sulfonamide]	500 to 5000 nM
O=S(=O)(Nc1cc(F)cs1)c1c[nH]c(-c2ccccc2)c1 [Cpd 593, N-(4-fluorothiophene-2-yl)-5-phenyl-1H-pyrrole-3-sulfonamide]	500 to 5000 nM
N#Cc1ccc(NS(=O)(=O)c2c[nH]c(-c3cscc3F)c2)c(F)c1 [Cpd 594, N-(4-cyano-2-fluorophenyl)-5-(4-fluorothiophene-3-yl)-1H-pyrrole-3-sulfonamide]	< 500 nM
Cc1nc(-c2cc(S(=O)(=O)Nc3cc(F)c(C(F)(F)F)cc3F)c[nH]2)cs1 [Cpd 595, N-[2,5-difluoro-4-(trifluoromethyl)phenyl]-5-(2-methyl-1,3-thiazol-4-yl)-1H-pyrrole-3-sulfonamide]	500 to 5000 nM
N#Cc1cc(F)c(NS(=O)(=O)c2c[nH]c(-c3ccc(F)c(Cl)c3)c2)cc1F [Cpd 596, 5-(3-chloro-4-fluorophenyl)-N-(4-cyano-2,5-difluorophenyl)-1H-pyrrole-3-sulfonamide]	500 to 5000 nM
O=S(=O)(Nc1cc(F)c(C(F)(F)F)cc1F)c1c[nH]c(-c2cncs2)c1 [Cpd 597, N-[2,5-difluoro-4-(trifluoromethyl)phenyl]-5-(1,3-thiazol-5-yl)-1H-pyrrole-3-sulfonamide]	< 500 nM
N#Cc1cc(F)c(NS(=O)(=O)c2c[nH]c(-c3nccs3)c2)cc1F [Cpd 598, N-(4-cyano-2,5-difluorophenyl)-5-(1,3-thiazol-2-yl)-1H-pyrrole-3-sulfonamide]	< 500 nM
Cc1csc(-c2cc(S(=O)(=O)Nc3cc(F)c(C(F)(F)F)cc3F)c[nH]2)n1 [Cpd 599, N-[2,5-difluoro-4-(trifluoromethyl)phenyl]-5-(4-methyl-1,3-thiazol-2-yl)-1H-pyrrole-3-sulfonamide]	< 500 nM
